Assay results taken from patent US20120122860A1, “SOLID FORMS OF SULFONAMIDES AND AMINO ACIDS” (Plexxikon, Inc., priority 2009, published 2012).

Columns and labels:
MAP4K4 = MAP4K4 (Homo sapiens, UniProt O95819); experiment: Kinase activity assay, MAP4K4
B-Raf = B-Raf (Homo sapiens, UniProt P15056); experiment: Kinase activity assay, B-Raf; type: biochemical; conditions: read-out: activity toward kinase B-Raf, IC50
B-Raf V600E = B-Raf V600E (Homo sapiens, UniProt P15056, V600E); experiment: Kinase activity assay, B-Raf V600E; type: biochemical; conditions: read-out: activity toward kinase B-Raf V600E, IC50
Kit = Kit (Homo sapiens, UniProt P10721); experiment: Kinase activity assay, Kit
Chain of Kit (P10721 26-976): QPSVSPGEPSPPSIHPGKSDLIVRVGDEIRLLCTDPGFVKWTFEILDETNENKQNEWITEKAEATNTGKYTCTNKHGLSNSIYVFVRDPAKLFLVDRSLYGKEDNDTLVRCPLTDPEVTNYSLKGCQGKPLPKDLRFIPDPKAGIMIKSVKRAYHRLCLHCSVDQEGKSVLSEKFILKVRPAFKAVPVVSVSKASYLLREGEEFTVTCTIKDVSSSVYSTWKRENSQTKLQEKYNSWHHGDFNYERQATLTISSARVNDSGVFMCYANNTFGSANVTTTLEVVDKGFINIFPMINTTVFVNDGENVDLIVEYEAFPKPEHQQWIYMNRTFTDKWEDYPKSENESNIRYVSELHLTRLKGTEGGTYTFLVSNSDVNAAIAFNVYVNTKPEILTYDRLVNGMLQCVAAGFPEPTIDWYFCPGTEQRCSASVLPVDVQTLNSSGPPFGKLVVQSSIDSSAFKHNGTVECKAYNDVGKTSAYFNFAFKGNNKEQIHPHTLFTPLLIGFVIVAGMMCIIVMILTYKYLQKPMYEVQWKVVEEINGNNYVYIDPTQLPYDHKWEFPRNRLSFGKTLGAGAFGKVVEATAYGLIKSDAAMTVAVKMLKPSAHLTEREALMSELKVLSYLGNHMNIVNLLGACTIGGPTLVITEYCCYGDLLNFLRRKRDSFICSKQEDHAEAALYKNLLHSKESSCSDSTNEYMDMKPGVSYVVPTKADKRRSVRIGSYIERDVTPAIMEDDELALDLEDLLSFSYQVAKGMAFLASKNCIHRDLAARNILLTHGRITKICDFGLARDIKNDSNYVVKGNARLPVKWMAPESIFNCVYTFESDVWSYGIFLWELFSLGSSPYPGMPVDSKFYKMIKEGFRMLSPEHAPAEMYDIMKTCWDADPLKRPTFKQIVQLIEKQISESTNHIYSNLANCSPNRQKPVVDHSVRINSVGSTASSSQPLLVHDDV

Fms = Fms (Homo sapiens, UniProt P07333); experiment: Kinase activity assay, Fms
Chain of Fms (P07333 20-972): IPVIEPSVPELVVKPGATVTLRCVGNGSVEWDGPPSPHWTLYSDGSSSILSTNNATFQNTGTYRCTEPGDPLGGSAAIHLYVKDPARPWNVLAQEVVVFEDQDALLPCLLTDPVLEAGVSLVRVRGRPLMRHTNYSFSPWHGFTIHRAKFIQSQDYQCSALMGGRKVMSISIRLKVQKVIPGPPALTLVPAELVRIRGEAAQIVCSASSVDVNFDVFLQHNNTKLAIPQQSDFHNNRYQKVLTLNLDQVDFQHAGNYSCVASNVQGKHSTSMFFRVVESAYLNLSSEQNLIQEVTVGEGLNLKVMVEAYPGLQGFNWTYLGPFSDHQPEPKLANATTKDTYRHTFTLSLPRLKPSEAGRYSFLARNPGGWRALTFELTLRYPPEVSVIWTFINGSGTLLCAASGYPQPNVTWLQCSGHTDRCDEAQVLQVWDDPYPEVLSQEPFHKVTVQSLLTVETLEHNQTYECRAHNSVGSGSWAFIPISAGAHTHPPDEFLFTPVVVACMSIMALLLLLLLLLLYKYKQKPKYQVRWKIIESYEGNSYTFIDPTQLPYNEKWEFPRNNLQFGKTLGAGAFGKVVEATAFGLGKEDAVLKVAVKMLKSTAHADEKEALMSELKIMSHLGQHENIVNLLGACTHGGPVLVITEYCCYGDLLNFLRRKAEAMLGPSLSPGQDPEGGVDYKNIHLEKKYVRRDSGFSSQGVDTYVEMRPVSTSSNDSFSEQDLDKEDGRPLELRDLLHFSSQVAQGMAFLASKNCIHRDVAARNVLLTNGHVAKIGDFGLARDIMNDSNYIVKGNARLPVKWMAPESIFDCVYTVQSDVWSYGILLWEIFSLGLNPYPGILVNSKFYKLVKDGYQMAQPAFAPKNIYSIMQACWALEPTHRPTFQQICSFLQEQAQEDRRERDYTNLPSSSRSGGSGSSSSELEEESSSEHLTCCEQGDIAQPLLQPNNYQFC

Kdr = Kdr (Homo sapiens, UniProt P35968); experiment: Kinase activity assay, Kdr
Chain of Kdr (P35968 20-1356): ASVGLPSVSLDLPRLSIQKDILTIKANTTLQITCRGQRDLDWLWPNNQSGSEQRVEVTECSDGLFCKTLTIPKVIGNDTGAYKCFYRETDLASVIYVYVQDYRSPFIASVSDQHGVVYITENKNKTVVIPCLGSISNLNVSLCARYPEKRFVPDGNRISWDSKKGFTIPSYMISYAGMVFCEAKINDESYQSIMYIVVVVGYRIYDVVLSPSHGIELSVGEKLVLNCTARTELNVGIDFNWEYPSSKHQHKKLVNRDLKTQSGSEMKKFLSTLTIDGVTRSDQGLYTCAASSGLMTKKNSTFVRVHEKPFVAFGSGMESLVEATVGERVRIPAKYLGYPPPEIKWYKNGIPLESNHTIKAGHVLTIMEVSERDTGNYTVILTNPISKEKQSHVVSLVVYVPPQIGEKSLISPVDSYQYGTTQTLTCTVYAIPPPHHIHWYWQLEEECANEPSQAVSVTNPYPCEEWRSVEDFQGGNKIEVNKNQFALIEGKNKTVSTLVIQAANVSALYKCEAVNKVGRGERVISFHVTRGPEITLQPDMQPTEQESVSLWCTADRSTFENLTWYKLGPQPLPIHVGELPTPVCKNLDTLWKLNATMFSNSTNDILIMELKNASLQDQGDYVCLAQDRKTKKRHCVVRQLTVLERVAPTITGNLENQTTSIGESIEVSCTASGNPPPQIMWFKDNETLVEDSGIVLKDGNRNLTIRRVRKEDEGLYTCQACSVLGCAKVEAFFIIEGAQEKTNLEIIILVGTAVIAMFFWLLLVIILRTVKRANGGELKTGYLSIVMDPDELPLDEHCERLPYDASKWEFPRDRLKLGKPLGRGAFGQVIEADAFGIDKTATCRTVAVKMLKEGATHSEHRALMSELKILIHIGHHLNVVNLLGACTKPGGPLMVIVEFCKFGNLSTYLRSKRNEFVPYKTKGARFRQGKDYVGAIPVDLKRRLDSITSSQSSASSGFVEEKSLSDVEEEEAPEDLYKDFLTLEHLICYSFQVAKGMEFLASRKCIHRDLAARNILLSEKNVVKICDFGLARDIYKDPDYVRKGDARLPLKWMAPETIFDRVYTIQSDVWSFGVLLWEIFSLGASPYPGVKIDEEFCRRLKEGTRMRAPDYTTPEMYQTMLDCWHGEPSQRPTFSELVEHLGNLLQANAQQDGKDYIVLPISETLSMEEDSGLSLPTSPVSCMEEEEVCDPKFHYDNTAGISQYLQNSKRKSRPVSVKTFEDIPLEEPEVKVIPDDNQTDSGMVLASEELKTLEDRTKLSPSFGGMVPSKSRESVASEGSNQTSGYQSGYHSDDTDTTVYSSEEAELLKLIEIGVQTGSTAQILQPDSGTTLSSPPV

C-Raf = C-Raf (Homo sapiens, UniProt P04049); experiment: Kinase activity assay, C-Raf
Chain of C-Raf (P04049 whole entry): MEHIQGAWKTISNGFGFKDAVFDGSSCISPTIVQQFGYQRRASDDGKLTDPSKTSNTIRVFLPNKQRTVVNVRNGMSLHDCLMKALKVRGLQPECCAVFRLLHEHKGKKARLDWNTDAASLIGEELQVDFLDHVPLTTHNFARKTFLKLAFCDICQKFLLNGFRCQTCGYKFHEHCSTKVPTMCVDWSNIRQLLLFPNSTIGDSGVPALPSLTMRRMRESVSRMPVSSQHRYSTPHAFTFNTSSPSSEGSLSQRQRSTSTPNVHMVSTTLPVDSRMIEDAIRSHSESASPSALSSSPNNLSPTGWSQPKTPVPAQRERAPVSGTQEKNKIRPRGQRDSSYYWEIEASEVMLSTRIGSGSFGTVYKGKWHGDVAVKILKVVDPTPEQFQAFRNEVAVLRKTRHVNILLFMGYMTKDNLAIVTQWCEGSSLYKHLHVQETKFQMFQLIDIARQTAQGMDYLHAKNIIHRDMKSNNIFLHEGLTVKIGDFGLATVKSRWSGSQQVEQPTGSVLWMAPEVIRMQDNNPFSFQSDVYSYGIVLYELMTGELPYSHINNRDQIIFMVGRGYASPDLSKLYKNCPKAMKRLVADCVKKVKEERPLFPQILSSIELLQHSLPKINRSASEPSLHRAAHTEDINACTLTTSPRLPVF

A-Raf = target: T1, A-Raf (Homo sapiens, UniProt P10398); experiment: Kinase activity assay, A-Raf
T1 sequence (P10398 1-606): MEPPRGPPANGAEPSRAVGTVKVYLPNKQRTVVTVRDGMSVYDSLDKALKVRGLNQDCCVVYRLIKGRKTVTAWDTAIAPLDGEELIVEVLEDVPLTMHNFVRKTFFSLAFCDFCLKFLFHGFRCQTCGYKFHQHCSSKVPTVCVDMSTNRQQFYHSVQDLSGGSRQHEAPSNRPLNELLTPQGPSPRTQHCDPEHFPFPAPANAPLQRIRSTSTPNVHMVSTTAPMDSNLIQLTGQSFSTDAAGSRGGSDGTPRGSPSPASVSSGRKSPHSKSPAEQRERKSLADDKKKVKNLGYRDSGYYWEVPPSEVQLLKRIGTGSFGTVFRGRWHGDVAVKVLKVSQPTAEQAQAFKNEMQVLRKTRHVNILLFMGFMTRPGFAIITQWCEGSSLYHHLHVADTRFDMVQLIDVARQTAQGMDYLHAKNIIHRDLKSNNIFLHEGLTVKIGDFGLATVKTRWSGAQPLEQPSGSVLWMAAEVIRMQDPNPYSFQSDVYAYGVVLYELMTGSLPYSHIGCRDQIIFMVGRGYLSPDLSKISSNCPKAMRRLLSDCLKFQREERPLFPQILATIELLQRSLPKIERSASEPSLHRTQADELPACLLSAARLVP

Src = Src (Homo sapiens, UniProt P12931); experiment: Kinase activity assay, Src

Measured: IC50

Chain of MAP4K4 (O95819 whole entry): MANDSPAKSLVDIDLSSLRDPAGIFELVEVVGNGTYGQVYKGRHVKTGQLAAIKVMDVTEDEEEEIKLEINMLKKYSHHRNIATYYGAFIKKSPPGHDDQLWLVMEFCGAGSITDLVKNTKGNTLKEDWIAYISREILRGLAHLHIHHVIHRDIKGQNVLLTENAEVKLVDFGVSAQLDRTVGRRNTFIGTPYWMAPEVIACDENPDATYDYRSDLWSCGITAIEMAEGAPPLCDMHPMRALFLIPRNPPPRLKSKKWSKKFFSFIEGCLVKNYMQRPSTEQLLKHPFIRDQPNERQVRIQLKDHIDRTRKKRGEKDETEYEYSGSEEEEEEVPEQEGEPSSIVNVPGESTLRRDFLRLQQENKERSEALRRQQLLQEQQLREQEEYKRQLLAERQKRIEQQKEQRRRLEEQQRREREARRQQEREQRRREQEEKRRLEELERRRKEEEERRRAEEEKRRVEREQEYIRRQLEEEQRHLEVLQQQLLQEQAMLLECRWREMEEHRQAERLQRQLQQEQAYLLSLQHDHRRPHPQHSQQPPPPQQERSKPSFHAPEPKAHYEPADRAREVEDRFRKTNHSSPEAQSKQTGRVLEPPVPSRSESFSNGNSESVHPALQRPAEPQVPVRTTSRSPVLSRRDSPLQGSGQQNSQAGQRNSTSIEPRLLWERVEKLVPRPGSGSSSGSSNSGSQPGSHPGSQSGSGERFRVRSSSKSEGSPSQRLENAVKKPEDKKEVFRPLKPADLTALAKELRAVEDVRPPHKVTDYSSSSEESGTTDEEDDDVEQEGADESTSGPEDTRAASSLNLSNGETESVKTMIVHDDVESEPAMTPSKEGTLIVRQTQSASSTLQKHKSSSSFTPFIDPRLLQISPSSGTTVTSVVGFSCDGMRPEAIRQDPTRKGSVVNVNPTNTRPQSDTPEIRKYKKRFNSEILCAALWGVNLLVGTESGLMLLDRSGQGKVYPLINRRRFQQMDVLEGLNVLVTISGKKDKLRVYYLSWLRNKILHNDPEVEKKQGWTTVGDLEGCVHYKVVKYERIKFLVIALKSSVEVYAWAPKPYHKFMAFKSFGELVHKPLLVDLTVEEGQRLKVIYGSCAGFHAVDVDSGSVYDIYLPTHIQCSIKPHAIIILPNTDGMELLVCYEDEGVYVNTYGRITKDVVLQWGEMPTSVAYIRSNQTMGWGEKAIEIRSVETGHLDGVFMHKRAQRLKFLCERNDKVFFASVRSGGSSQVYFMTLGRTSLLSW

O=C(CCCCC1SCC2NC(=O)NC21)NCCCCCNC(=O)CCc1cnc2[nH]cc(C(=O)c3c(F)ccc(NS(=O)(=O)c4ccc(C(F)(F)F)cc4)c3F)c2c1 (stereo not drawn) [P-2008, 5-(2-Oxo-hexahydro-thieno[3,4-d]imidazol-6-yl)-pentanoic acid [5-(3-{3-[2,6-difluoro-3-(4-trifluoromethyl-benzenesulfonylamino)-benzoyl]-1H-pyrrolo[2,3-b]pyridin-5-yl}-propionylamino)-pentyl]-amide]
not listed: A-Raf | Src
≤ 10 µM: all other assays above

O=C(c1cc(NS(=O)(=O)c2ccc(C(F)(F)F)cc2)ccc1F)c1c[nH]c2ncccc12 [P-2119, N-[4-Fluoro-3-(1H-pyrrolo[2,3-b]pyridine-3-carbonyl)-phenyl]-4-trifluoromethyl-benzenesulfonamide]
≤ 10 µM: B-Raf | C-Raf | A-Raf

Cc1cnc2[nH]cc(C(=O)c3cc(NS(=O)(=O)c4cccnc4)ccc3F)c2c1 [P-2137, Pyridine-3-sulfonic acid [4-fluoro-3-(5-methyl-1H-pyrrolo[2,3-b]pyridine-3-carbonyl)-phenyl]-amide]
≤ 10 µM: MAP4K4 | Src | Fms | Kdr

O=C(O)CCc1cccc(-c2cnc3[nH]cc(C(=O)c4cccc(NS(=O)(=O)c5cccnc5)c4)c3c2)c1 [P-2148, 3-(3-{3-[3-(Pyridine-3-sulfonylamino)-benzoyl]-1H-pyrrolo[2,3-b]pyridin-5-yl}-phenyl)-propionic acid]
not listed: B-Raf V600E | C-Raf | A-Raf
≤ 10 µM: all other assays above

CCCS(=O)(=O)Nc1ccc(F)c(C(=O)c2c[nH]c3ncc(-c4cnc(C)nc4)cc23)c1F [P-2211, Propane-1-sulfonic acid {2,4-difluoro-3-[5-(2-methyl-pyrimidin-5-yl)-1H-pyrrolo[2,3-b]pyridine-3-carbonyl]-phenyl}-amide]
not listed: Kit | A-Raf
≤ 10 µM: all other assays above

CCCS(=O)(=O)Nc1ccc(F)c(C(=O)c2c[nH]c3ncc(-c4ccc(S(=O)(=O)NCCO)cc4)cc23)c1F [P-2221, 4-{3-[2,6-Difluoro-3-(propane-1-sulfonylamino)-benzoyl]-1H-pyrrolo[2,3-b]pyridin-5-yl}-N-(2-hydroxy-ethyl)-benzenesulfonamide]
≤ 10 µM: MAP4K4 | Kit | Fms | Kdr

CCCS(=O)(=O)Nc1ccc(F)c(C(=O)c2c[nH]c3ncc(-c4ccc(CCCOC)nc4)cc23)c1F [P-2226, Propane-1-sulfonic acid (2,4-difluoro-3-{5-[6-(3-methoxy-propyl)-pyridin-3-yl]-1H-pyrrolo[2,3-b]pyridine-3-carbonyl}-phenyl)-amide]
not listed: A-Raf
≤ 10 µM: all other assays above

CCCS(=O)(=O)Nc1ccc(F)c(C(=O)c2c[nH]c3ncc(-c4cccc(S(C)(=O)=O)c4)cc23)c1F [P-2228, Propane-1-sulfonic acid {2,4-difluoro-3-[5-(3-methanesulfonyl-phenyl)-1H-pyrrolo[2,3-b]pyridine-3-carbonyl]-phenyl}-amide]
not listed: A-Raf
≤ 10 µM: all other assays above

CCCS(=O)(=O)Nc1ccc(F)c(C(=O)c2c[nH]c3ncc(-c4nn[nH]n4)cc23)c1F [P-2242, Propane-1-sulfonic acid {2,4-difluoro-3-[5-(2H-tetrazol-5-yl)-1H-pyrrolo[2,3-b]pyridine-3-carbonyl]-phenyl}-amide]
≤ 10 µM: MAP4K4 | Src | Kit | Fms | Kdr

CCCCS(=O)(=O)Nc1ccc(F)c(C(=O)c2c[nH]c3ncc(-c4ccc(Cl)cc4)cc23)c1F [P-2300, Butane-1-sulfonic acid {3-[5-(4-chloro-phenyl)-1H-pyrrolo[2,3-b]pyridine-3-carbonyl]-2,4-difluoro-phenyl}-amide]
≤ 10 µM: MAP4K4 | Src | Kit | Fms | Kdr

O=C(c1c(F)ccc(NS(=O)(=O)CCC(F)(F)F)c1F)c1c[nH]c2ncc(Cl)cc12 [P-2324, 3,3,3-Trifluoro-propane-1-sulfonic acid [3-(5-chloro-1H-pyrrolo[2,3-b]pyridine-3-carbonyl)-2,4-difluoro-phenyl]-amide]
not listed: A-Raf
≤ 10 µM: all other assays above

N#Cc1cnc2[nH]cc(C(=O)c3c(F)ccc(NS(=O)(=O)CCC(F)(F)F)c3F)c2c1 [P-2331, 3,3,3-Trifluoro-propane-1-sulfonic acid [3-(5-cyano-1H-pyrrolo[2,3-b]pyridine-3-carbonyl)-2,4-difluoro-phenyl]-amide]
not listed: A-Raf
≤ 10 µM: all other assays above

CCN(CC)S(=O)(=O)Nc1ccc(F)c(C(=O)c2c[nH]c3ncc(C#N)cc23)c1F [P-2385, N,N-diethylamino-sulfonic acid [3-(5-cyano-1H-pyrrolo[2,3-b]pyridine-3-carbonyl)-2,4-difluoro-phenyl]-amide]
≤ 10 µM: B-Raf V600E | Kdr | A-Raf

CCN(CC)S(=O)(=O)Nc1ccc(F)c(C(=O)c2c[nH]c3ncc(C)cc23)c1F [P-2386, N,N-diethylamino-sulfonic acid [2,4-difluoro-3-(5-methyl-1H-pyrrolo[2,3-b]pyridine-3-carbonyl)-phenyl]-amide]
≤ 10 µM: B-Raf V600E | Kdr | A-Raf

CCN(CC)S(=O)(=O)Nc1ccc(F)c(C(=O)c2c[nH]c3nccc(Cl)c23)c1F [P-2387, N,N-diethylamino-sulfonic acid [3-(4-chloro-1H-pyrrolo[2,3-b]pyridine-3-carbonyl)-2,4-difluoro-phenyl]-amide]
≤ 10 µM: B-Raf V600E | Kdr | A-Raf

CCN(CC)S(=O)(=O)Nc1ccc(F)c(C(=O)c2c[nH]c3nccc(C#N)c23)c1F [P-2388, N,N-diethylamino-sulfonic acid [3-(4-cyano-1H-pyrrolo[2,3-b]pyridine-3-carbonyl)-2,4-difluoro-phenyl]-amide]
≤ 10 µM: B-Raf V600E | A-Raf

O=C(c1cccc(NS(=O)(=O)C2CCCCC2)c1)c1c[nH]c2ncc(Cl)cc12 [P-2452, Cyclohexanesulfonic acid [3-(5-chloro-1H-pyrrolo[2,3-b]pyridine-3-carbonyl)-phenyl]-amide]
≤ 10 µM: MAP4K4 | B-Raf V600E | Kit | Fms | Kdr

O=C(c1cccc(NS(=O)(=O)C2CCCC2)c1)c1c[nH]c2ncc(Cl)cc12 [P-2453, Cyclopentanesulfonic acid [3-(5-chloro-1H-pyrrolo[2,3-b]pyridine-3-carbonyl)-phenyl]-amide]
≤ 10 µM: MAP4K4 | B-Raf V600E | Kit | Fms | Kdr

Cc1cnc2[nH]cc(C(=O)c3cccc(NS(=O)(=O)C4CCCCC4)c3)c2c1 [P-2458, Cyclohexanesulfonic acid [3-(5-methyl-1H-pyrrolo[2,3-b]pyridine-3-carbonyl)-phenyl]-amide]
≤ 10 µM: MAP4K4 | Kit | Fms | Kdr

O=C(O)CCc1cccc(-c2cnc3[nH]cc(C(=O)c4cccc(NS(=O)(=O)C5CCCCC5)c4)c3c2)c1 [P-2465, 3-{3-[3-(3-Cyclohexanesulfonylamino-benzoyl)-1H-pyrrolo[2,3-b]pyridin-5-yl]-phenyl}-propionic acid]
not listed: C-Raf | A-Raf
≤ 10 µM: all other assays above
